The text below walks through data of ChEMBL document CHEMBL4020754, “Isolation of the antibiotic pseudopyronine B and SAR evaluation of C3/C6 alkyl analogs” (Bioorg Med Chem Lett, 2017).

Each structure is given as a SMILES string. Converted amounts (≈) assume the structure as drawn.

Type in all cases: functional
In one assay the test system is Escherichia coli. In words: Antibacterial activity against Escherichia coli ATCC 15022 measured after 24 hrs. The following applies: ATCC 15022, 24 h.
In the next assay the test system is Bacillus subtilis. Description: Antibacterial activity against Bacillus subtilis ATCC 11774 measured after 24 hrs. The following applies: ATCC 11774, 24 h.
The next assay concerns Staphylococcus aureus. Description: Antibacterial activity against Staphylococcus aureus ATCC 29213 measured after 24 hrs. The following applies: ATCC 29213, 24 h.
The next assay concerns Pseudomonas aeruginosa. In words: Antibacterial activity against Pseudomonas aeruginosa ATCC 9027 measured after 24 hrs. The following applies: ATCC 9027, 24 h.

The IC50 is the midpoint of a concentration-inhibition curve. A lower IC50 goes with greater potency. In the case of `CCCCCCCC(=O)c1c(O)cc(CCCCCCC)oc1=O`, the 50% inhibitory concentration (IC50) is greater than 1000 µg/mL in the assay on Escherichia coli, 27 µg/mL (≈ 80.2 µM) in the assay with Bacillus subtilis, 48 µg/mL (≈ 143 µM) in the assay on Staphylococcus aureus and greater than 1000 µg/mL in the assay with Pseudomonas aeruginosa.

On to `CCCCc1c(O)cc(CCC)oc1=O`, for which the half-maximal inhibitory concentration (IC50) with Escherichia coli is greater than 1000 µg/mL; with Bacillus subtilis, 46 µg/mL (≈ 219 µM); in the assay with Staphylococcus aureus, 33 µg/mL (≈ 157 µM); in the assay on Pseudomonas aeruginosa it was greater than 1000 µg/mL.

On to `CCCCC(=O)c1c(O)cc(CCCC)oc1=O`, for which the half-maximal inhibitory concentration (IC50) with Escherichia coli was 223 µg/mL (≈ 884 µM); with Bacillus subtilis, 227 µg/mL (≈ 900 µM); in the assay on Staphylococcus aureus, 24 µg/mL (≈ 95.1 µM); in the assay with Pseudomonas aeruginosa, greater than 1000 µg/mL.

Regarding `CCCCCCCc1c(O)cc(CCCCCC)oc1=O`, the 50% inhibitory concentration (IC50) in the assay on Escherichia coli was greater than 1000 µg/mL; with Bacillus subtilis, 0.7 µg/mL (≈ 2.38 µM); in the assay on Staphylococcus aureus, 0.04 µg/mL (≈ 0.136 µM); in the assay with Pseudomonas aeruginosa, greater than 1000 µg/mL.

On to `CCc1c(O)cc(C)oc1=O`, for which the concentration for half-maximal inhibition (IC50) with Escherichia coli is 300 µg/mL (≈ 1950 µM); with Bacillus subtilis it was greater than 1000 µg/mL; with Staphylococcus aureus, greater than 1000 µg/mL; with Pseudomonas aeruginosa it was greater than 1000 µg/mL.

`CCCC(=O)c1c(O)cc(CCC)oc1=O`: the IC50 in the assay on Escherichia coli was 248 µg/mL (≈ 1110 µM); in the assay with Bacillus subtilis, 1000 µg/mL (≈ 4460 µM); in the assay with Staphylococcus aureus, 46 µg/mL (≈ 205 µM); in the assay with Pseudomonas aeruginosa it was greater than 1000 µg/mL.

For `CCCCCc1c(O)cc(CCCC)oc1=O`, the half-maximal inhibitory concentration (IC50) in the assay with Escherichia coli is greater than 1000 µg/mL; in the assay with Bacillus subtilis, 23 µg/mL (≈ 96.5 µM); in the assay on Staphylococcus aureus, 4.6 µg/mL (≈ 19.3 µM); with Pseudomonas aeruginosa, greater than 1000 µg/mL.

As to `CCCCCCCCc1c(O)cc(CCCCCCC)oc1=O`, the concentration for half-maximal inhibition (IC50) in the assay with Escherichia coli is greater than 1000 µg/mL; in the assay with Bacillus subtilis, 24 µg/mL (≈ 74.4 µM); in the assay on Staphylococcus aureus it was greater than 1000 µg/mL; with Pseudomonas aeruginosa, greater than 1000 µg/mL.

Take `CCCc1c(O)cc(CC)oc1=O`: the concentration for half-maximal inhibition (IC50) is 278 µg/mL (≈ 1530 µM) in the assay on Escherichia coli, 203 µg/mL (≈ 1110 µM) in the assay on Bacillus subtilis, 244 µg/mL (≈ 1340 µM) in the assay with Staphylococcus aureus and greater than 1000 µg/mL in the assay with Pseudomonas aeruginosa.

As to `CCCCCCCCCc1c(O)cc(CCCCCCCC)oc1=O`, the IC50 in the assay on Escherichia coli, with Bacillus subtilis, in the assay on Staphylococcus aureus and in the assay with Pseudomonas aeruginosa was greater than 1000 µg/mL in each case.

On to `CCC(=O)c1c(O)cc(CC)oc1=O`, for which the IC50 is 257 µg/mL (≈ 1310 µM) in the assay with Escherichia coli, greater than 1000 µg/mL in the assay with Bacillus subtilis, 116 µg/mL (≈ 591 µM) with Staphylococcus aureus and greater than 1000 µg/mL with Pseudomonas aeruginosa.

Take `CCCCCCC(=O)c1c(O)cc(CCCCCC)oc1=O`: the IC50 with Escherichia coli was greater than 1000 µg/mL; with Bacillus subtilis, 3.5 µg/mL (≈ 11.3 µM); in the assay on Staphylococcus aureus it was 1.5 µg/mL (≈ 4.86 µM); in the assay with Pseudomonas aeruginosa, greater than 1000 µg/mL.

Consider `CCCCCCc1c(O)cc(CCCCC)oc1=O`, for which the IC50 in the assay on Escherichia coli is greater than 1000 µg/mL; in the assay on Bacillus subtilis, 3.3 µg/mL (≈ 12.4 µM); in the assay on Staphylococcus aureus it was 2.4 µg/mL (≈ 9.01 µM); with Pseudomonas aeruginosa, greater than 1000 µg/mL.

Turning to `CCCCCCCCC(=O)c1c(O)cc(CCCCCCCC)oc1=O`, the IC50 in the assay on Escherichia coli, in the assay with Bacillus subtilis, in the assay on Staphylococcus aureus and in the assay with Pseudomonas aeruginosa was greater than 1000 µg/mL in each case.

Regarding `CCCCCC(=O)c1c(O)cc(CCCCC)oc1=O`, the IC50 with Escherichia coli was greater than 1000 µg/mL; with Bacillus subtilis, 21 µg/mL (≈ 74.9 µM); in the assay with Staphylococcus aureus it was 3.8 µg/mL (≈ 13.6 µM); with Pseudomonas aeruginosa, greater than 1000 µg/mL.

As for `CCCCCCCc1cc(O)c(CCCCCC)c(=O)o1` [PSEUDOPYRONINES B], the IC50 with Escherichia coli was greater than 1000 µg/mL; in the assay on Bacillus subtilis, 0.3 µg/mL (≈ 1.02 µM); in the assay on Staphylococcus aureus, 0.1 µg/mL (≈ 0.34 µM); with Pseudomonas aeruginosa, greater than 1000 µg/mL.
